# Tests used:
# [1] = tested on: gut microflora populations; experiment: In vitro human gut model, gut microflora populations (Example 3); format: cell-based
# Source text: (§1) An in vitro gut model was used to study the effects of omadacycline instillation on both normal microflora populations and C. difficile. This gut model has been validated against gut contents from sudden death victims and provides a very close simulation of bacterial activities and composition in different areas of the hindgut (Macfarlane et al., Microb. Ecol. 35, 180-7, 1998). The model consists of three vessels aligned in series, and top-fed with a complex growth medium. All three vessels are continuously stirred, anaerobically maintained at 37° C. and regulated to reflect in vivo differences, including pH, from proximal to distal colon. The three anaerobic fermentation vessels are maintained at increasing alkalinity (from pH 5.5±0.2 for vessel 1; pH 6.2±0.2 for vessel 2; and pH 6.8±0.2 for vessel 3). The increasing alkalinity in combination with the nutrient limited conditions are designed to simulate the human gut from the proximal to the distal colon. Inoculation with pooled human feces (from healthy elderly volunteers) is followed by a period of equilibration, during which bacterial populations respond to their environmental conditions and reach a steady state. At this stage, dietary ingredients, prebiotics, pathogens and/or antibiotics may be added, and the bacterial populations monitored. Specific components of the gut flora and relevant pathogens may be closely monitored and their behavior analyzed.
# The gut model was inoculated with pooled fecal slurry (5 volunteers ≥60 years of age with no history of antibiotic therapy in the previous 3 months) and left for 2 weeks to allow the bacterial populations to achieve steady state. A single inoculum (˜10^7 cfu/mL) of C. difficile spores (PCR ribotype 027 strain 210) was added into vessel 1 of the gut model on day 14. One week later, on day 21, a second aliquot of C. difficile spores was added, and antibiotic instillation commenced. Omadacycline instillation (430 mg/L, once daily, for 7 days) commenced on day 21.
# (§2) Gut microbiota bacterial populations and C. difficile total viable counts and spore counts were enumerated daily by culture on selective and non-selective agars. C. difficile populations were monitored in all three vessels, and all other bacterial groups (total obligate anaerobes, total facultative anaerobes, lactose fermenting enterobacteriaceae, enterococci, total clostridia, lactobacilli, bifidobacteria, B. fragilis group) were monitored in vessels 2 and 3 only. Vessel 3 is of most physiological relevance in terms of propensity to induce CDI. C. difficile total viable counts and spores counts were monitored using viable counting and a differential alcohol shock viable count on selective agars.
# [2] = tested on: C. difficile PCR ribotype 027 strain 210; experiment: In vitro human gut model, C. difficile germination, proliferation and toxin production (Example 3); format: cell-based; details: 430 mg/L once daily for 7 days
# Source text: as §1, with “Inoculation with pooled human feces (from healthy elderly volunteers) is followed by a period of equilibration, during which bacterial populations respond to their environmental conditions and reach a steady state.” left out, “analyzed. […]” for “analyzed.”
# as §2, with “Vessel 3 is of most physiological relevance in terms of propensity to induce CDI.” left out
# From day 14 onwards C. difficile cytotoxin was measured using a quantitative VERO cell cytotoxicity assay. […] Concentrations of omadacyline were measured by large-plate bioassay using Wilkins Chalgren agar with Kocuria rhizophila as the indicator organism.
# [3] = vessels 2 and 3, 430 mg/L once daily for 7 days
# [4] = vessels 2 and 3, 430 mg/L once daily for 7 days, fell below limit of detection
smiles,measurement,setting,value
CN(C)c1cc(CNCC(C)(C)C)c(O)c2c1C[C@H]1C[C@H]3[C@H](N(C)C)C(O)=C(C(N)=O)C(=O)[C@@]3(O)C(O)=C1C2=O (stereo in doubt) [Omadacycline],time for all populations to return to steady state levels post antimicrobial exposure,[1]; after end of dosing,approximately 1 week
same,Enterobacteriacea populations,[1]; [3],remained undisturbed
same,decrease in B. fragilis group,[1]; [3],~3 log10 cfu/mL
same,decrease in Enterococcus spp.,[1]; [3],~4 log10 cfu/mL
same,decrease in Lactobacillus spp.,[1]; [3],~2 log10 cfu/mL
same,decline in Bifidobacteria population,[1]; [4],~6 log10 cfu/mL
same,decline in Clostridia population,[1]; [4],~6 log10 cfu/mL
same,C. difficile vegetative cell proliferation,[2]; all three vessels,no vegetative cell proliferation observed
same,signs of simulated C. difficile infection,[2]; all three vessels,did not lead to any signs of simulated C. difficile infection
same,C. difficile toxin detection (VERO cell cytotoxicity assay),[2]; any vessels,No toxin was detected

# — US20250049819A1, “METHODS FOR TREATING AND PREVENTING C. DIFFICILE INFECTION” (Paratek Pharmaceuticals, Inc., priority 2016, published 2025)
